Data taken from patent publication US20240228536A1, “PEPTIDES FOR USE IN SKIN AND HAIR PIGMENTATION” (Follicum AB, priority 2020, published 2024).
Peptide text beside a SMILES is read from it.

Columns and labels:
[1] = Stability study, purity of FOL-005 by HPLC on storage; assay type: physicochemical
Protocol: FOL-005 lyophilized powder was dissolved in phosphate/citrate buffer of pHs 5, 6, 7 or 7.6. Samples of each formulation were analysed for purity using high-pressure liquid chromatography after up to 3 months of storage at 25° C. respectively. In addition, an essentially water-free formulation of FOL-005 was stored at 25° C. and samples were analysed for purity after up to 12 months of storage.
FOL-005/sucrose lyophilized powder was formulated to a suspension in dried or un-dried isopropyl myristate, paraffin oil/petrolatum, Sorbitan laurate and glyceryl behenate. Samples of each formulation were analysed for purity using high pressure liquid chromatography after up to 12 months of storage at 2-8, 25 and 30° C. respectively.

[2] = Solubility of FOL-005 in propylene glycol; assay type: physicochemical; conditions: in propylene glycol at room temperature
[3] = system: Pigmented skin equivalents (SEs), Melanoderms Mel-300-A (donor) and Mel-300-C-2 (donor); experiment: Skin equivalent culture, photographic assessment of pigmentation; assay type: cell-based, human
Protocol: The skin equivalent surface area was 63.6 mm^2. Other equipment used included SMZ1000 Stereo Microscope (Nikon); UC30 Microscope Camera (Olympus); Phosphate-Buffered Saline (PBS); 6-well Tissue Culture Plates (Sarstedt); Image J software (https://imagej.nih.gov); Paintshop Photo Pro Software (Corel). The Melanoderms were prepared by carefully removing the agarose with sterile forceps and placing them in pre-warmed culture medium (37° C.) for an hour prior to treatment. The Melanoderms were then topically treated (without rubbing) with 25 μl of the various peptides, dissolved in dH2O at 10 mg/ml. […] The SEs were examined and removed from culture when skin darkening became visible. The pigmentation of the Melanoderms was macroscopically assessed by capturing high-resolution images using the Olympus microscope camera. […] They were then placed into a 6-well plate containing 1 ml PBS/well and images captured at ×8 magnification. The images were then processed using Image J & Paintshop Photo Pro software, to determine a quantifiable pixel area, which equated to the level of pigmentation present in the skin equivalent. The image brightness was normalised and the image gray-scaled using Paintshop Photo Pro, then Image J was used to threshold the image. The pigmentation was quantified by assessing total pixel area of pigmentation coverage in a fixed sample area. An ANOVA test (Dunnett's post-test) was used for the statistical analysis. Three different experiments were conducted. In the first, skin equivalents from both donors were included, and in experiment 2 and 3, only the […] donor was included. The SE of the […] donor from the first experiment received 5 treatments of 25 μl of peptide solution at 10 mg/ml; starting on the first day following receipt then on days 3, 5, 9 and 12. Peptides 1 (SEQ ID NO: 2), 3 (SEQ ID NO: 3) and 4 (SEQ ID NO: 4) were tested. The images were taken on Day 14. In experiment 2, peptide 3 and 4 were selected for testing to see if it had any efficacy in reducing melanin content or the distribution of melanin throughout the SE. This time, 5 SEs were used per treatment to improve statistical robustness. The experiment was continued for 20 days with treatments on days 0, 3, 7 and 12 and medium changes every other day. In experiment 3 a more highly pigmented SE ([…] donor melanocytes) was used and with an increased sample size with n=7 per treatment. […] Treatment was repeated on days 5, 9, 12 and 15 with medium changed every other day.

skin equivalents = experiment: Total melanin assay; assay type: cell-based, human; conditions: experiment 2, 10 mg/ml topical, day 20, n=4
Protocol: The skin equivalents used in this study was from the same donors as in Example 2. The determination of the total melanin content of the skin equivalent was determined using a total melanin assay.
The total melanin content of the SE was calculated by dissolving the SE in Soluene and reading the absorbance against a standard curve. The SEs were removed from culture on day 20 and washed with PBS. They were then transferred to a glass centrifuge tube and 500 μl Soluene added. The tubes were then covered with […]®, gently vortexed and placed on the Thermomixer at 50° C. for 1 hour. The tubes were then gently vortexed and 150 μl of the sample and synthetic melanin standards pipetted in triplicate into a glass 96 well plate. The absorbance was then measured at 490 nm on a Spectrophotometer. Results are presented in μg/ml against a standard curve. The change of melanin content is expressed as a percentage change versus vehicle control samples. An ANOVA (with Dunnett's post-test) was used for the statistical analysis.
Three experiments were conducted, and the same donors were used as in Example 2. The sample sizes were as follows: experiment 1 n=2, experiment 2 n=4 and experiment 3 n=7. Peptides 1 (SEQ ID NO: 2), 3 (SEQ ID NO: 3) and 4 (SEQ ID NO: 4) were tested.

skin equivalents (SEs) = experiment: H&E and Warthin Starry staining of skin equivalents; assay type: cell-based, human; conditions: day 20
Source text: Two skin equivalents (SEs) were used from one donor.
The analysis was achieved using the Warthin Starry assay using our recently published method (Joly-Tonetti et al 2016) and hematoxylin&eosin (H&E) staining.
The SEs were stained with Warthin Starry stain to visualise and quantify the melanin in sections. The SEs were removed from culture on day 20 and washed in PBS. They were then flash frozen in liquid nitrogen and mounted in OCT for sectioning. 10 μm sections were cut using a cryostat, the sections collected on slides and fixed in Acetone for 10 mins. The OCT was removed from the section by washing in acidulated water for 20 mins. The slides were then incubated in 1% silver nitrate solution for 1 hour at 43° C. […] The slides were stained for 2 mins then the staining was stopped by running the slides under hot tap water. Slides were then mounted using Histomount. Brightfield images were captured using a Nikon Eclipse microscope. Image analysis of the melanin density in sections was performed using Image J and densitometric thresholding. Results are presented in pixel intensity units. For the hematoxylin&eosin (H&E) staining, the SEs were flash frozen, sectioned and fixed as above. The slides were then washed in dH2O to remove the OCT for 20 mins. Haematoxylin was filtered using filter paper into a Coplin jar. Further Coplin jars were also prepared containing the following: Tap Water, Scott's Tap Water, 0.25% Eosin, 50% Ethanol, 70% Ethanol, 90% Ethanol, Ethanol and Histoclear. The slides were then placed into Haematoxylin for 2 mins, and then placed into tap water for 30 secs, Scott's Tap Water for 1 min & Eosin for 2 mins. The slides were then dehydrated through the Ethanol (1 min each) then placed into Histoclear for 2 mins and mounted using Histomount. Brightfield images were captured using a Nikon Eclipse microscope.

Row | Compound | degradation of FOL-005 ([1]; at various pH (buffers)) | degradation of FOL-005 ([1]; water free conditions) | solubility of FOL-005 [2] | pigmentation of skin equivalents (photographic assessment) compared to vehicle control ([3]; experiment 1, donor, 5 topical treatments of 25 μl at 10 mg/ml in dH2O, images Day 14) | pigmentation of skin equivalents (photographic assessment) compared to vehicle control ([3]; experiment 2, donor, 10 mg/ml, 20 days, n=5) | pigmentation of skin equivalents (photographic assessment) compared to vehicle control ([3]; experiment 3, more highly pigmented SE (donor), 10 mg/ml, n=7) | total melanin content of skin equivalents vs vehicle control (skin equivalents) | melanin content and distribution in SE sections (Warthin Starry) (skin equivalents (SEs); one of the donors (FIG. 3A)) | melanin content and distribution in SE sections (Warthin Starry) (skin equivalents (SEs); second donor (FIG. 3B-D))
1 | CC[C@H](C)[C@H](NC(=O)[C@H](CC(=O)O)NC(=O)CNC(=O)[C@H](CC(=O)O)NC(=O)[C@H](Cc1ccc(O)cc1)NC(=O)[C@@H](NC(=O)[C@H](CC(=O)O)NC(=O)[C@@H](N)C(C)C)[C@@H](C)O)C(=O)N[C@@H](CO)C(=O)N[C@H](C(=O)N[C@H](C(=O)N[C@@H](Cc1ccc(O)cc1)C(=O)NCC(=O)N[C@@H](CC(C)C)C(=O)N[C@@H](CCCNC(=N)N)C(=O)O)C(C)C)C(C)C [FOL-005] (H-VDTYDGDISVVYGLR-OH; N-terminus and C-terminus assumed) | degraded | very limited | 160 µg/mL |  |  |  |  |  | 
2 | Ala-Ala-His-Met (AAHM; (1)..(4) Peptide 3) |  |  |  | equivalent or slightly less pigmented than the vehicle control | slight decrease in pigmentation | little effect | no difference | reduction in melanin in the upper epidermal layers | did not appear to have any obvious effect
